In patent US20080051424A1, “Heterocyclyl-substituted nonadepsipeptides” (priority 2004, published 2008):
Starred links: 1 amine or outer side, 2 acyl side, 3 side chain; linkers in the order of their positions; H or OH if unused. Positions of bridges follow the written chain, without caps; N, C: chain ends. Non-standard residues stand in square brackets, D forms with d. Residues, ends and D or L forms follow the SMILES beside them. Phe(3R-OH) = O=C([C@@H](N[*:1])[C@H](O[*:3])c1ccccc1)[*:2]; X1 = CC1CC(C)NC(NCCC[C@@H](N[*:1])C(=O)[*:2])=N1; Asn(3S-OH) = NC(=O)[C@@H](O)[C@H](N)C(=O)O; Leu(3R-OH) = CC(C)[C@@H](O)[C@H](N)C(=O)O; aThr = C[C@H](O)[C@H](N)C(=O)O

Tests used:
E. faecalis ICB 27159 = assay type: cell-based, Enterococcus faecalis
Description: (§1) Determination of the Minimum Inhibitory Concentration (MIC): The MIC is determined in the liquid dilution test in accordance with the NCCLS guidelines. Overnight cultures of Staphylococcus aureus 133, Entercococcus faecalis 27159, E. faecium 4147 and Streptococcus pneumoniae G9a are incubated with the described test substances in a 1:2 dilution series. The MIC determination is carried out with a cell count of 10^5 microorganisms per ml in Isosensitest medium (Difco, Irvine/USA), with the exception of S. pneumoniae, which is tested in BHI broth (Difco, Irvine/USA) with 10% bovine serum at a cell count of 10^6 microorganisms per ml. The cultures are incubated at 37° C. for 18-24 hours, S. pneumoniae in the presence of 10% CO2. The lowest substance concentration in each case at which no visible bacterial growth occurs any more is defined as the MIC. The MIC values are reported in μg/ml.

[1] = tested on: Staphylococcus aureus 133; assay type: cell-based
Description: as §1

[2] = tested on: Streptococcus pneumoniae G9a; assay type: cell-based
Description: as §1

MIC E. faecalis ICB 27159 (E. faecalis ICB 27159): 2 µg/mL | MIC S. aureus 133 [1]: 0.5 µg/mL | MIC S. pneumoniae [2]: 0.5 µg/mL
SMILES: CC[C@H](C)[C@@H]1NC(=O)[C@@H](CCCNC2=NC(C)CC(C)N2)NC(=O)[C@H](CC(C)C)NC(=O)[C@H]([C@H](O)C(C)C)NC(=O)[C@@H](NC(=O)[C@H](CC(C)C)NC(=O)[C@H](N)CC(C)C)[C@@H](c2ccccc2)OC(=O)[C@H](CO)NC(=O)[C@H]([C@H](O)C(N)=O)NC(=O)CNC(=O)[C@H]([C@H](C)O)NC1=O.O=C(O)C(F)(F)F.O=C(O)C(F)(F)F (stereo partly drawn) [Example 3, N^ω.6,N^ω′.6-(Pentane[2,4]diyl)lysobactin] (H-[dL]L[Phe(3R-OH)][Leu(3R-OH)]L[X1]I[aThr]G[Asn(3S-OH)]S; ester 3-C)
